# “And” between values parts separate entries of the source, which are not always exact repeats. Identical values can stand only once.
# Key:
# [1] = target: NRAS G12C (Homo sapiens (Human), UniProt P01111+P62937, G12C); experiment: Ras-Raf (BRAF RBD) disruption / FRET / MOA assay, NRAS G12C; format: biochemical; conditions: read-out: IC50* NRAS G12C FRET data
# Description: (§1) The purpose of this biochemical assay is to measure the ability of test compounds to facilitate ternary complex formation between a nucleotide-loaded Ras isoform and cyclophilin A; the resulting ternary complex disrupts binding to a BRAF^RBD construct, inhibiting Ras signaling through a RAF effector.
# (§2) Compound is present in plate wells as a 10-point 3-fold dilution series starting at a final concentration of 30 μM. After incubation at 25° C. for 3 hours, a mixture of Anti-His Eu-W1024 and anti-GST allophycocyanin is then added to assay sample wells at final concentrations of 10 nM and 50 nM, respectively, and the reaction incubated for an additional 1.5 hours. […] Compounds that facilitate disruption of a Ras:RAF complex are identified as those eliciting a decrease in the TR-FRET ratio relative to DMSO control wells.
# This protocol may also be executed substituting other Ras proteins or nucleotides. […]
# [2] = target: K-Ras G13C (Homo sapiens (Human), UniProt P01116+P62937, G13C); experiment: Ras-Raf (BRAF RBD) disruption / FRET / MOA assay, KRAS G13C; format: biochemical; conditions: KRAS G13C; Ras-Raf disruption/FRET/MOA assay; read-out: IC50* KRAS G13C FRET data
# Description: as §1, §2
# (§3) This protocol may also be executed substituting other Ras proteins or nucleotides.
# (§4) The purpose of this biochemical assay was to measure the ability of test compounds to facilitate ternary complex formation between a nucleotide-loaded K-Ras isoform and Cyclophilin A; the resulting ternary complex disrupts binding to a BRAF^RBD construct, inhibiting K-Ras signaling through a RAF effector. Data is reported as IC50 values.
# as §2, with “Compound was” for “Compound is”, “allophycocyanin was” for “allophycocyanin is”, “a K-Ras:RAF” for “a Ras:RAF”, “complex were” for “complex are”
# [3] = system: NCI-H358 cells (K-Ras G12C); experiment: Potency assay: pERK in NCI-H358 cells; format: cell-based, human; conditions: Homo sapiens, NCI-H358; H358 KRAS G12C; read-out: pERK EC50
# In short: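 Compounds are dosed as ten 3-fold dilutions from a 10 mM DMSO stock, in duplicate, and left on cells for 4 h at 37 °C, 5% CO2. Phospho-ERK1/2 is then quantified by AlphaLISA SureFire Ultra or In-Cell Western, and IC50 is derived from a 4-parameter sigmoid against log concentration.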
# [4] = target: K-Ras G12C (Homo sapiens (Human), UniProt P01116+P62937, G12C); experiment: Ras-Raf (BRAF RBD) disruption / FRET / MOA assay, KRAS G12C; format: biochemical; conditions: KRAS G12C; Ras-Raf disruption/FRET/MOA assay; read-out: IC50* KRAS G12C FRET data
# Description: as §1, §2, §3, §4
# as §2, with “Compound was” for “Compound is”, “allophycocyanin was” for “allophycocyanin is”, “a K-Ras:RAF” for “a Ras:RAF”, “complex were” for “complex are”
# [5] = target: KRAS WT (Homo sapiens (Human), UniProt P01116+P62937); experiment: Ras-Raf (BRAF RBD) disruption / FRET / MOA assay, KRAS WT; format: biochemical; conditions: read-out: IC50* KRAS WT FRET data
# Description: as §1, §2, §3, §4
# as §2, with “Compound was” for “Compound is”, “allophycocyanin was” for “allophycocyanin is”, “a K-Ras:RAF” for “a Ras:RAF”, “complex were” for “complex are”
# [6] = target: KRAS G12S (Homo sapiens (Human), UniProt P01116+P62937, G12S); experiment: Ras-Raf (BRAF RBD) disruption / FRET / MOA assay, KRAS G12S; format: biochemical; conditions: Ras-Raf disruption/FRET/MOA assay; class symbols; read-out: KRAS G12S FRET data IC50
# In short: (§5)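 Ternary complex formation (Ras–compound–cyclophilin A) displacing BRAF RBD, monitored by TR-FRET. Three hours at 25° C with compound (top 30 μM final), then 1.5 h with the labelled antibodies. Lower ratio than DMSO indicates disruption; IC50 reported.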
# [7] = target: KRAS G12D (Homo sapiens (Human), UniProt P01116+P62937, G12D); experiment: Ras-Raf (BRAF RBD) disruption / FRET / MOA assay, KRAS G12D; format: biochemical; conditions: Ras-Raf disruption/FRET/MOA assay; class symbols; read-out: KRAS G12D FRET data IC50
# In short: as §5
# [8] = target: KRAS G13D (Homo sapiens (Human), UniProt P01116+P62937, G13D); experiment: Ras-Raf (BRAF RBD) disruption / FRET / MOA assay, KRAS G13D; format: biochemical; conditions: read-out: IC50* KRAS G13D FRET data
# Description: as §1, §2, §3, §4
# as §2, with “Compound was” for “Compound is”, “allophycocyanin was” for “allophycocyanin is”, “a K-Ras:RAF” for “a Ras:RAF”, “complex were” for “complex are”
# [9] = target: KRAS G12V (Homo sapiens (Human), UniProt P01116+P62937, G12V); experiment: Ras-Raf (BRAF RBD) disruption / FRET / MOA assay, KRAS G12V; format: biochemical; conditions: read-out: IC50* KRAS G12V FRET data
# Description: as §1, §2, §3, §4
# as §2, with “Compound was” for “Compound is”, “allophycocyanin was” for “allophycocyanin is”, “a K-Ras:RAF” for “a Ras:RAF”, “complex were” for “complex are”
# Sequence of K-Ras G13C (P01116-2 other isoform, or with tags, fused parts or gaps G13C): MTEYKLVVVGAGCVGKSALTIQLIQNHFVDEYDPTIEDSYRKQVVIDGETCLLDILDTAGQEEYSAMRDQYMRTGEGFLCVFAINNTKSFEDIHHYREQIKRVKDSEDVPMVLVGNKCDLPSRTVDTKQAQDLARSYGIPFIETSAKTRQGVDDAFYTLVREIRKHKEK
# Sequence of K-Ras G13C (P62937 whole entry): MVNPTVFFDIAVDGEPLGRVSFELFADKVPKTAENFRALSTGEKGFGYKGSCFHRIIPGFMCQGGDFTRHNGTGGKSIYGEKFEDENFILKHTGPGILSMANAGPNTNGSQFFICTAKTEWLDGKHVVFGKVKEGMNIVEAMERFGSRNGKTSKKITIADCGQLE
# Sequence of NRAS G12C (P01111 whole entry G12C, canonical isoform): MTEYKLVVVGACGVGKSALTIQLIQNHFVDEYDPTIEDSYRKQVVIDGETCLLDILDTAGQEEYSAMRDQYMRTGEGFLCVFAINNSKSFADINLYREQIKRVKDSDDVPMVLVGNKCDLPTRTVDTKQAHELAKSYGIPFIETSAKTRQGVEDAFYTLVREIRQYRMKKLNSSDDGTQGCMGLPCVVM
# Sequence of NRAS G12C (P62937 whole entry, canonical isoform): as the sequence (P62937 whole entry) above
# Sequence of KRAS G12S (P01116-2 other isoform, or with tags, fused parts or gaps G12S): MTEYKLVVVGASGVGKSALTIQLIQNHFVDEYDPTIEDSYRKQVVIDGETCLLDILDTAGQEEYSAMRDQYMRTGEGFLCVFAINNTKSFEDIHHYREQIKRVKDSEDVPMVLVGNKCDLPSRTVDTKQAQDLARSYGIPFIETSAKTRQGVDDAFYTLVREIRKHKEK
# Sequence of KRAS G12S (P62937 whole entry): as the sequence (P62937 whole entry) above
# Sequence of KRAS G12D (P01116-2 other isoform, or with tags, fused parts or gaps G12D): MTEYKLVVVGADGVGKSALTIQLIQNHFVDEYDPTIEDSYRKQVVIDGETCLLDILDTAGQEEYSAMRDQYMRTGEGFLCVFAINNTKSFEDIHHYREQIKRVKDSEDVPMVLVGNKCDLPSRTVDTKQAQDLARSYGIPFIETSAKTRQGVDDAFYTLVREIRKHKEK
# Sequence of KRAS G12D (P62937 whole entry): as the sequence (P62937 whole entry) above
# Sequence of KRAS G13D (P01116-2 other isoform, or with tags, fused parts or gaps G13D): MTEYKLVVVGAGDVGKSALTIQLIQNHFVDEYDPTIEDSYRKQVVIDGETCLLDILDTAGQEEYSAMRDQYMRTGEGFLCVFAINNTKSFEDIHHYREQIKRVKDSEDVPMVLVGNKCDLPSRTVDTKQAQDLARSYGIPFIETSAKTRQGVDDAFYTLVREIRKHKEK
# Sequence of KRAS G13D (P62937 whole entry): as the sequence (P62937 whole entry) above
# Sequence of KRAS G12V (P01116-2 other isoform, or with tags, fused parts or gaps G12V): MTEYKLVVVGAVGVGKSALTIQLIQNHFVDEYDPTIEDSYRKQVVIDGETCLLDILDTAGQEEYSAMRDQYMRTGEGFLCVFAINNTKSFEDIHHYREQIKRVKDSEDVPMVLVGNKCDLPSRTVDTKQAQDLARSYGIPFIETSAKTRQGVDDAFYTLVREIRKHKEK
# Sequence of KRAS G12V (P62937 whole entry): as the sequence (P62937 whole entry) above
# Sequence of K-Ras G12C (P01116-2 other isoform, or with tags, fused parts or gaps G12C): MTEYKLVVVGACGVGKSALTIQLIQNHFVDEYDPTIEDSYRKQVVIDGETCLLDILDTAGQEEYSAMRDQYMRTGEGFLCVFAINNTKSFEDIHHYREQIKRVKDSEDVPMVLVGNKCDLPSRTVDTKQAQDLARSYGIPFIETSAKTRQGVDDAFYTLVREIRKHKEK
# Sequence of K-Ras G12C (P62937 whole entry): as the sequence (P62937 whole entry) above
# Sequence of KRAS WT (P01116-2 other isoform, or with tags, fused parts or gaps): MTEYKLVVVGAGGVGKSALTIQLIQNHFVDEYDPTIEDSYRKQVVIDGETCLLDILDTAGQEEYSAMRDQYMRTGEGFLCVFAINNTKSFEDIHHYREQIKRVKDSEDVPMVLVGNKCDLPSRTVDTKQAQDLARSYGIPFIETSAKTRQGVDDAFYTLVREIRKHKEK
# Sequence of KRAS WT (P62937 whole entry): as the sequence (P62937 whole entry) above
Structure (SMILES),IC50 [1],IC50 [2],EC50 [3],IC50 [4],IC50 [5],IC50 [6],IC50 [7],IC50 [8],IC50 [9]
"CCn1c(-c2cnccc2COC)c2c3cc(ccc31)-c1cccc(c1)C[C@H](NC(=O)[C@H](C(C)C)N(C)C(=O)[C@H]1CCN(C(=O)C#CCN(C)C)C1)C(=O)N1CCC[C@H](N1)C(=O)OCC(C)(C)C2 (atropisomer, axis not shown) [Example A120]",0.1 to 1 µM and < 0.01 µM,0.1 to 1 µM and 1 to 10 µM,< 5 µM,0.1 to 1 µM and < 0.01 µM,1 to 10 µM and > 10 µM,1 to 10 µM and > 10 µM,1 to 10 µM,1 to 10 µM,1 to 10 µM and > 10 µM
"CCn1c(-c2cccnc2[C@H](C)OC)c2c3cc(ccc31)-c1cc(O)cc(c1)C[C@H](NC(=O)[C@H](C(C)C)N(C)C(=O)[C@H]1CCN(C(=O)/C=C/CN(C)C)C1)C(=O)N1CCC[C@H](N1)C(=O)OCC(C)(C)C2 (atropisomer, axis not shown) [Example A183]",0.01 to 0.1 µM and < 0.01 µM,0.01 to 0.1 µM and 1 to 10 µM,< 5 µM,0.01 to 0.1 µM and < 0.01 µM,1 to 10 µM and 0.01 to 0.1 µM,1 to 10 µM and 0.01 to 0.1 µM,1 to 10 µM and 0.01 to 0.1 µM,1 to 10 µM and 0.01 to 0.1 µM,0.1 to 1 µM and 0.01 to 0.1 µM
"CCn1c(-c2cccnc2[C@H](C)OC)c2c3cc(ccc31)-c1cc(O)cc(c1)C[C@H](NC(=O)[C@H](C(C)C)N(C)C(=O)[C@H]1CCN(C(=O)/C=C/CN3CCOCC3)C1)C(=O)N1CCC[C@H](N1)C(=O)OCC(C)(C)C2 (atropisomer, axis not shown) [Example A184]",0.1 to 1 µM and < 0.01 µM,0.1 to 1 µM and > 10 µM,< 5 µM,0.1 to 1 µM and < 0.01 µM,0.1 to 1 µM and > 10 µM,1 to 10 µM and 0.01 to 0.1 µM,> 10 µM and 0.1 to 1 µM,0.1 to 1 µM and > 10 µM,1 to 10 µM and 0.01 to 0.1 µM
"CCn1c(-c2cccnc2[C@H](C)OC)c2c3cc(ccc31)-c1cccc(c1)C[C@H](NC(=O)[C@H](C(C)C)N(C)C(=O)[C@H]1CCN(C(=O)/C=C/CN(C)C)C1)C(=O)N1CCC[C@H](N1)C(=O)OCC(C)(C)C2 (atropisomer, axis not shown) [Example A187]",0.01 to 0.1 µM and 1 to 10 µM,> 10 µM and 1 to 10 µM,< 5 µM,0.01 to 0.1 µM and 1 to 10 µM,1 to 10 µM and > 10 µM,1 to 10 µM and > 10 µM,> 10 µM,1 to 10 µM and > 10 µM,1 to 10 µM and > 10 µM
"CCn1c(-c2cccnc2[C@H](C)OC)c2c3cc(ccc31)-c1cccc(c1)C[C@H](NC(=O)[C@H](C(C)C)N(C)C(=O)[C@H]1CCN(C(=O)C#CCN3CCOCC3)C1)C(=O)N1CCC[C@H](N1)C(=O)OCC(C)(C)C2 (atropisomer, axis not shown) [Example A191]",0.01 to 0.1 µM and 1 to 10 µM,1 to 10 µM and > 10 µM,< 5 µM,0.01 to 0.1 µM and 0.1 to 1 µM,> 10 µM,> 10 µM,> 10 µM,> 10 µM,1 to 10 µM and > 10 µM
"C=CC(=O)N1CC[C@H](C(=O)N(C)[C@H](C(=O)N[C@H]2Cc3cc(O)cc(c3)-c3ccc4c(c3)c(c(-c3cccnc3[C@@H](OC)C3CC3)n4CC)CC(C)(C)COC(=O)[C@@H]3CCCN(N3)C2=O)C(C)C)C1 (atropisomer, axis not shown) [Example A206]",0.1 to 1 µM,1 to 10 µM,< 5 µM,0.1 to 1 µM,1 to 10 µM,0.1 to 1 µM,> 10 µM,1 to 10 µM,0.1 to 1 µM
"CCn1c(-c2cccnc2[C@H](C)OC)c2c3cc(ccc31)-c1cc(O)cc(c1)C[C@H](NC(=O)[C@H](C(C)C)N(C)C(=O)c1ccc(NC(=O)/C=C/CN(C)C)cn1)C(=O)N1CCC[C@H](N1)C(=O)OCC(C)(C)C2 (atropisomer, axis not shown) [Example A251]",0.01 to 0.1 µM,0.01 to 0.1 µM and < 0.01 µM,< 5 µM,0.01 to 0.1 µM,0.1 to 1 µM and 1 to 10 µM,0.1 to 1 µM and 1 to 10 µM,1 to 10 µM and > 10 µM,0.1 to 1 µM and 1 to 10 µM,0.1 to 1 µM and 1 to 10 µM

# Source: patent publication US11566007B2, “Ras inhibitors” (Revolution Medicines, Inc., priority 2019, dated 2023)
